Patent US6329498A, “Polypeptide transition metal salts and method of enhancing anti-HIV activity of polypeptide” (Seikagaku Corporation, priority 1996, dated 2001)
Where a SMILES comes first, the peptide text is derived from it.

Key:
[1] = system: human immunodeficiency virus (HIV); assay: Anti-HIV activity: protection of HIV-infected MT-4 cells from cell death, MTT method; details: for SI (CC50 /ED50): rough ratio of CC50 to EC50, MT-4 cells
Method: To a 96-well microtiter plate, HIV-infected MT-4 cells (2.5×10^4 cells/well, Multiplicity of infection (MOI): 0.001) was added immediately after the infection along with test materials in various concentrations. […] On the other hand, in order to know the cytotoxicity of the test substances on the MT-4 cells, virus-non-infected cells were cultured with the test materials in various concentrations as described above. […] And the rough ratio of CC50 to EC50 (CC50 /EC50) is expressed as an effective ratio (SI).

[2] = system: MT-4 cells; assay: Cytotoxicity on virus-non-infected MT-4 cells, MTT method; format: cell-based; details: 5 days at 37° C.
[3] = HIV-infected MT-4 cells, MOI 0.001, 5 days at 37° C., MTT method

Compound	EC50 ([1]; read-out: EC50 (concentration to suppress 50% of cell death due to HIV infection), HIV-infected MT-4 cells, MOI 0.001, 5 days at 37° C., MTT method, unit μM printed with the compound) [µM]	SI (CC50 /ED50) [1]	CC50 (50% cytotoxic concentration) ([2]; unit μM printed with the compound) [µM]	EC50 (concentration to suppress 50% of cell death due to HIV infection) [1, 3] [µg/mL]	CC50 (50% cytotoxic concentration) [2] [µg/mL]
Cc1cn([C@H]2C[C@H](N=[N+]=[N-])[C@@H](CO)O2)c(=O)[nH]c1=O [AZT, reference compound]	0.0011	1716	1.93		
N=C(N)NCCC[C@H](NC(=O)[C@@H]1CSSC[C@H](NC(=O)[C@H](Cc2c[nH]c3ccccc23)NC(=O)[C@H](CCCNC(=N)N)NC(=O)[C@@H](N)CCCNC(=N)N)C(=O)N[C@@H](Cc2ccc(O)cc2)C(=O)N[C@@H](CCCNC(=N)N)C(=O)N[C@@H](CCCCN)C(=O)N[C@H]2CSSC[C@H](NC(=O)[C@H](Cc3ccc(O)cc3)NC(=O)CNC(=O)[C@H](CCCCN)NC(=O)[C@H](Cc3ccc(O)cc3)NC2=O)C(=O)N[C@@H](Cc2ccc(O)cc2)C(=O)N[C@@H](CCCNC(=N)N)C(=O)N[C@@H](CCCCN)C(=O)N1)C(N)=O [Polypeptide (1)] (HELM PEPTIDE1{R.R.W.C.Y.R.K.C.Y.K.G.Y.C.Y.R.K.C.R.[am]}$PEPTIDE1,PEPTIDE1,4:R3-17:R3|PEPTIDE1,PEPTIDE1,8:R3-13:R3$$$V2.0; bridges inferred)				0.0047	41.53
N=C(N)NCCC[C@H](NC(=O)[C@H](CS)NC(=O)[C@H](CCCCN)NC(=O)[C@H](CCCNC(=N)N)NC(=O)[C@H](Cc1ccc(O)cc1)NC(=O)[C@H](CS)NC(=O)[C@H](Cc1ccc(O)cc1)NC(=O)CNC(=O)[C@H](CCCCN)NC(=O)[C@H](Cc1ccc(O)cc1)NC(=O)[C@H](CS)NC(=O)[C@H](CCCCN)NC(=O)[C@H](CCCNC(=N)N)NC(=O)[C@H](Cc1ccc(O)cc1)NC(=O)[C@H](CS)NC(=O)[C@H](Cc1c[nH]c2ccccc12)NC(=O)[C@H](CCCNC(=N)N)NC(=O)[C@@H](N)CCCNC(=N)N)C(N)=O [Reduced form of polypeptide (1)] (H-RRWCYRKCYKGYCYRKCR-NH2)				0.0052	41.27
N=C(N)NCCC[C@H](NC(=O)[C@H](CS)NC(=O)[C@H](CCCCN)NC(=O)[C@H](CCCNC(=N)N)NC(=O)[C@H](Cc1ccc(O)cc1)NC(=O)[C@@H]1CCCN1C(=O)[C@@H](CCCCN)NC(=O)[C@H](CCCCN)NC(=O)[C@H](CCCNC(=N)N)NC(=O)[C@H](Cc1ccc(O)cc1)NC(=O)[C@H](CS)NC(=O)[C@H](Cc1c[nH]c2ccccc12)NC(=O)[C@H](CCCNC(=N)N)NC(=O)[C@@H](N)CCCNC(=N)N)C(N)=O [Reduced form of] (HELM PEPTIDE1{R.R.W.C.Y.R.K.[dK].P.Y.R.K.C.R.[am]}$$$$V2.0)				0.040	41.17
Dextran sulfate [reference compound]				0.68	
N=C(N)NCCC[C@H](NC(=O)[C@@H]1CSSC[C@H](NC(=O)[C@H](Cc2c[nH]c3ccccc23)NC(=O)[C@H](CCCNC(=N)N)NC(=O)[C@@H](N)CCCNC(=N)N)C(=O)N[C@@H](Cc2ccc(O)cc2)C(=O)N[C@@H](CCCNC(=N)N)C(=O)N[C@@H](CCCCN)C(=O)N[C@H](CCCCN)C(=O)N2CCC[C@H]2C(=O)N[C@@H](Cc2ccc(O)cc2)C(=O)N[C@@H](CCCNC(=N)N)C(=O)N[C@@H](CCCCN)C(=O)N1)C(N)=O [Polypeptide (2), Arg-Arg-Trp-Cys-Tyr-Arg-Lys----------DLys-Pro-----------Tyr-Arg-Lys-Cys-Arg-NH2] (HELM PEPTIDE1{R.R.W.C.Y.R.K.[dK].P.Y.R.K.C.R.[am]}$PEPTIDE1,PEPTIDE1,4:R3-13:R3$$$V2.0)		1565		0.029	44.60
